The test system of one series is EC219 cells. The series is described as follows: Extracellular release of the γ-secretase inhibitor from prodrugs by EC219 endothelial cells. In kind it is in vitro ADME, rat. The note with it: HEK293, 215/F2, HK2 and EC219 cells, 20 μM in PBS, 19 h. As to the method:
FIG. 2A. Extracellular release of amine-SecrI (11a) metabolites for α-Glu- and γ-Glu-secretase inhibitor prodrugs. The prodrugs were added to the cells for 19 h, then the supernatants were harvested and analyzed for SecrI (8), amine-SecrI (11a), the prodrugs 13a, 13b, 15a, 15b and (for 13a, 15a) also the correponding deacetylated metabolites.
Cpd added: 20 μM in PBS, 19 h incubation. SecrI (8) is stable when added to cells for 19 h; free SecrI (8) was never detected from any prodrug.
The preparation and characterization of rat brain-derived EC219 endothelial cells have been described in Juillerat-Jeanneret, L. et al. In Vitro Cell. Dev. Biol. 1992, 28A, 537-543. These cells express high levels of APA and γ-GT activities and can be used for determining kinetics in living cells, and were chosen as APA- and γ-GT-positive representative cell models. EC219 cells were grown in DMEM medium containing 1 g/l glucose, 10% heat-inactivated fetal calf serum (FCS, EuroClone, UK) supplemented with 100 U/mL penicillin and 100 μg/mL streptomycin (P/S) on uncoated cell culture plastic ware. The HEK293 and HK2 human kidney cells are available from the ATCC (American Tissue Culture Collection, Manassas, Va., USA). HEK293 cells were grown on uncoated cell culture plastic ware in Iscove modified Dulbecco medium (IMDM, Life Technologies) containing 10% FCS and P/S. HK2 cells were grown on uncoated cell culture plastic ware in DMEM/F-12 GlutaMAX medium (Gibco) containing 5% FCS, P/S, 1% ITS (1.0 mg/ml bovine insulin, 0.55 mg/ml human transferrin and 0.5 μg/ml sodium selenite, Sigma-Aldrich) and 5 ng/ml hydrocortisone. […] Then 75 μl of supernatant from each well was removed and the luciferase activity was determined by adding 25 μl of Steady-Glo luciferase assay reagent (Promega).
A first screen of the different γ-secretase prodrugs was performed in vitro to determine the cleavage rate of each compound and ex-vivo in mouse kidney tissues. Extracellular release of the γ-secretase inhibitor from prodrugs by human kidney cells (HEK293, HEK293-derived Notch-reporter 215/F2 cells28,39 and HK2 cells) as well as the rat brain-derived EC219 endothelial cells which express very high levels of APA and γ-GT activities were evaluated for liberating active inhibitors SecrI (8) or amine-SecrI (11a) (FIG. 2A).
All samples were analyzed using protein precipitation followed by LC-MS/MS analysis. […] One μL of the supernatant was analyzed by LC/MS. […]

For series [1], the target named is Notch signal transduction pathway. The series is described as follows: In vitro Notch signal transduction pathway activity assay (DR215/F2 luciferase reporter). Type of series: cell-based, human. The method, then:
The compounds were dissolved in dimethyl sulfoxide (DMSO) at 10 mM stock solution, aliquoted and stored at −4° C. until use, then diluted in PBS or cell culture medium. In the experimental settings, controls containing increasing concentrations of DMSO, corresponding to the amount of DMSO of the diluted compounds were always included. For in vivo experiments, the compounds were dissolved in 0.9% NaCl, incubated 30 min at 40° C. and sonicated for 5 min.
The requirement of proteolytic activation of the prodrugs to inhibit Notch cleavage by the γ-secretase, was investigated using a reporter assay (Table 3). The DR215/F2 cell line expresses a reporter construct designed to monitor the activity of the Notch signal transduction pathway. The DR215/F2 cell line 39 carries two transgenes: the firefly luciferase reporter gene expressed under the control of the Gal4 promoter and the human Notch1 activator gene fused with the yeast Gal4 transcription factor. This assay confirmed that the prodrugs were able to inhibit γ-secretase and the activation of the Notch pathway. The DR215/F2 cell reporter assay was also used to determine the IC50 for blockade of the Notch pathway by all the compounds designed and prepared.
The values were determined using the 215/F2 reporter cell line for Notch activation by the γ-secretase. All values are the mean of at least 3 experiments.
The preparation and characterization of rat brain-derived EC219 endothelial cells have been described in Juillerat-Jeanneret, L. et al. In Vitro Cell. Dev. Biol. 1992, 28A, 537-543. These cells express high levels of APA and γ-GT activities and can be used for determining kinetics in living cells, and were chosen as APA- and γ-GT-positive representative cell models. EC219 cells were grown in DMEM medium containing 1 g/l glucose, 10% heat-inactivated fetal calf serum (FCS, EuroClone, UK) supplemented with 100 U/mL penicillin and 100 μg/mL streptomycin (P/S) on uncoated cell culture plastic ware. The HEK293 and HK2 human kidney cells are available from the ATCC (American Tissue Culture Collection, Manassas, Va., USA). HEK293 cells were grown on uncoated cell culture plastic ware in Iscove modified Dulbecco medium (IMDM, Life Technologies) containing 10% FCS and P/S. HK2 cells were grown on uncoated cell culture plastic ware in DMEM/F-12 GlutaMAX medium (Gibco) containing 5% FCS, P/S, 1% ITS (1.0 mg/ml bovine insulin, 0.55 mg/ml human transferrin and 0.5 μg/ml sodium selenite, Sigma-Aldrich) and 5 ng/ml hydrocortisone. The human HEK293-derived DR215/F2 embryonic kidney cell line, stably transfected with pFR Luc and APP-Notch Gal (plasmid DR215) as described in WO 2006/061136 A2 and Brockhaus, M. Neuroreport 1998 9, 1481-1486, were maintained using IMDM with 10% FCS supplemented with P/S and kept under double-selection with 150 μg/ml G-418 and 50 μg/ml hygromycin B on coated (1:100 Poly-L-lysine) cell culture plastic ware. In this assay, the Notch-Gal4 protein is bound to the cell membrane via its trans-membrane domain. The Notch intracellular domain is released by proteolytic cleavage mediated by the γ-secretase and moves to the cell nucleus where it activates the reporter luciferase gene transcript. Inhibition of γ-secretase thus decreases luciferase activity. Briefly, cultures were grown in 96-well microplates to 80% confluence; the cells were then washed in PBS and exposed to decreasing concentrations of the γ-secretase-inhibitor analogues in complete IMDM culture medium without red phenol at 37° C. for 19 h. Then 75 μl of supernatant from each well was removed and the luciferase activity was determined by adding 25 μl of Steady-Glo luciferase assay reagent (Promega).

The target of another series is γ-secretase (Homo sapiens, UniProt P49768). Description: In vitro γ-secretase activity assay (cell-free). Type of series: biochemical. The note with it: HEK293 membrane fraction, recombinant APP substrate, Abeta ELISA. As to the method:
The γ-secretase activity of the γ-secretase inhibiting alcohols of formula (A) of present invention was determined in cell-free in vitro assays where e.g., a cell lysate containing the γ-secretase complex is incubated with a suitable β-Amyloid Precursor Protein (APP)-derived substrate which is cleaved to the Abeta peptides. The amount of produced peptides can be determined with specific ELISA assays. Cell lines of neuronal origin secrete Abeta peptides which can be measured with the specific ELISA assay. Treatment with compounds which inhibit γ-secretase leads to a reduction of secreted Abeta thus providing a measure of inhibition.
The in vitro assay of γ-secretase activity uses a HEK293 membrane fraction as a source of γ-secretase and a recombinant APP substrate. Latter consist of the C-terminal 100 amino acids of human APP fused to a 6×Histidin tail for purification which is expressed in E. coli in a regulatable expression vector, e.g. pEt15. This recombinant protein corresponds to the truncated APP fragment which results after […] of the extracellular domain and which constitutes the γ-secretase substrate. […] The Abeta peptides which are produced by γ-secretase cleavage of the substrate are detected by specific ELISA assays as described (Brockhaus M et al, Neuroreport 9(7), 1481-1486 (1998).

Structures can show the parent of a compound that is named as a salt.

Usually IC50 stands for the midpoint of a concentration-inhibition curve.

As to `C[C@H]1Oc2ccc(F)cc2N(CCOC(=O)NCCNC(=O)CC[C@H](N)C(=O)O)C(=O)[C@H]1NC(=O)[C@@](C)(O)C(=O)NCC(F)(F)C(F)(F)F` [Compound 13b, (S)-2-Amino-5-(2-((2-((2R,3S)-7-fluoro-3-((S)-2-hydroxy-2-methyl-3-oxo-3-(2,2,3,3,3-pentafluoropropylamino)propanamido)-2-methyl-4-oxo-3,4-dihydrobenzo[b][1,4]oxazepin-5(2H)-yl)ethoxy)carbonylamino)ethylamino)-5-oxopentanoic acid hydrochloride], in the series with EC219 cells, the “hydrolysis by γ-GT” value is “also not hydrolyzed by γ-GT”. The “IC50 for blockade of the Notch pathway, range in words” value in series [1] (DR215/F2 cell reporter assay) is on record as “μM range”. The same molecule displayed an IC50 in series [1] (Homo sapiens, 215/F2 reporter cell line, 19 h, mean of at least 3 experiments) of 1090 nM.

Turning to `C[C@H]1Oc2ccc(F)cc2N(CCO)C(=O)[C@H]1NC(=O)C(C)(C)C(=O)NCC(F)(F)C(F)(F)F` [Example 53, N-[(6R,7S)-2-Fluoro-9-(2-hydroxy-ethyl)-6-methyl-8-oxo-6,7,8,9-tetrahydro-5-oxa-9-aza-benzocyclohepten-7-yl]-2,2-dimethyl-N′-(2,2,3,3,3-pentafluoro-propyl)-malonamide], at γ-secretase, the 50% inhibitory concentration (IC50) was 90 nM.

For the origin of these results see patent publication US10632127B2, “Targeted notch pathway inhibitors” (Hoffmann-La Roche Inc., priority 2015, dated 2020).
